Values after ≈ are worked out from the molar mass of the structure shown.

12 compounds from ChEMBL document CHEMBL1157990, “Iridal-type triterpenoids with ichthyotoxic activity from belamcanda chinensis” (J Nat Prod, 1999) can be followed below.

The nature of the data set: Ichthyotoxicity against Oryzias latipes after 24 hrs. It is filed as organism-based. The following applies: in vivo, read-out: TLm.
Take `CCCCCCCCCCCCCC(=O)OCCC[C@@H]1/C(=C(/C)C=O)CC[C@](C)(O)[C@@]1(C)CC/C=C(\C)[C@@H](C/C=C(\C)CCC=C(C)C)OC(C)=O`: the LC50 at 24 h was over 10 µg/mL.
In the case of `CC(C)=CCC/C(C)=C/C=C/C(C)=C/[C@@H]1C[C@@]2(C(O)O1)[C@H](CCCO)/C(=C(/C)C=O)CC[C@]2(C)O` (some centres not stated) it was 5.5 µg/mL (≈ 11.3 µM).
On to `CC(=O)OCCC[C@@H]1/C(=C(/C)C=O)CC[C@](C)(O)[C@@]1(C)CC/C=C(\C)[C@H](O)C/C=C(\C)CCC=C(C)C`, for which the LC50 at 24 h came to 0.8 µg/mL (≈ 1.55 µM).
In the case of `CC(=O)OCCC[C@@H]1/C(=C(/C)C=O)CC[C@](C)(O)[C@@]1(C)CC/C=C(\C)[C@@H](C/C=C(\C)CCC=C(C)C)OC(C)=O` it was over 10 µg/mL.
In the case of `C=C(/C=C/C=C(\C)CCC=C(C)C)[C@@H]1CC[C@]2([C@H](CCCO)/C(=C(/C)C=O)CC[C@]2(C)O)[C@@H]1O` it was 1.6 µg/mL (≈ 3.4 µM); in that of `CCCCCCCCCC(=O)OCCC[C@@H]1/C(=C(/C)C=O)CC[C@](C)(O)[C@@]1(C)CC/C=C(\C)[C@@H](C/C=C(\C)CCC=C(C)C)OC(C)=O`, over 30 µg/mL.
In the case of `CC(C)=CCC/C(C)=C/C=C/C(C)=C/[C@@H]1C[C@@]23[C@H](OCCC[C@@H]2/C(=C(/C)C=O)CC[C@]3(C)O)O1` [ANHYDROBELACHINAL] it was over 10 µg/mL; in that of `CC(C)=CCC/C(C)=C/C=C/C(C)=C/[C@H]1C[C@@]2(C(O)O1)[C@H](CCCO)/C(=C(/C)C=O)CC[C@]2(C)O` (some centres not stated) [BELACHINAL], 2.8 µg/mL (≈ 5.75 µM); in that of `C=C1CC/C=C(\C)C(=O)[C@H](O)[C@@H]2[C@@H]1CC2(C)C` [BUDDLEDIN B], 1.2 µg/mL (≈ 5.12 µM).
As to `CC(C)=CCC/C(C)=C/C=C/C(C)=C/[C@H]1C[C@@]23[C@H](OCCC[C@@H]2/C(=C(/C)C=O)CC[C@]3(C)O)O1` [EPIANHYDROBELACHINAL], the LC50 at 24 h is over 10 µg/mL.
For `CCCCCCCCCCCCCC(=O)OCCC[C@@H]1/C(=C(/C)C=O)CC[C@](C)(O)[C@@]1(C)CC/C=C(\C)[C@H](O)C/C=C(\C)CCC=C(C)C` [IRISTECTORENE B], the LC50 at 24 h is 3.5 µg/mL (≈ 5.11 µM).
With `CC(C)=CCC/C(C)=C/C[C@@H](O)/C(C)=C/CC[C@@]1(C)[C@H](CCCO)/C(=C(/C)C=O)CC[C@]1(C)O` [ISOIRIDOGERMANAL], the LC50 at 24 h came out at 9.3 µg/mL (≈ 19.6 µM).
